{
  "source": "patent US20040082664A1",
  "about": "“Derivatives of hydroxyphenyl, a method for preparing thereof and their pharmaceutical composition” (priority 2002, published 2004)",
  "key": {"[1]": {"target": "T1, GST-fused lck SH2 domain (Homo sapiens, UniProt P06239)", "T1 construct": "GST (Glutathione transferase)-fused lck SH2 domain", "T1 sequence (P06239 127-224 limits assumed)": "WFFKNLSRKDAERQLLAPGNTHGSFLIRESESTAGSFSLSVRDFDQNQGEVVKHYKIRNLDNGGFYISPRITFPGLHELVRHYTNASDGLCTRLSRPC", "test": "Inhibition of in vitro binding of lck SH2 domain to its cognate pYEEI peptide (BIAcore 2000)", "details": "IC50 class for inhibition of GST-lckSH2 binding to immobilized biotinylated […]pYEEIPI peptide; read-out: BOND DEGREE WITH SH2 OF 1ck", "in_short": "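Surface plasmon resonance: biotinylated pYEEIPI peptide immobilized on the sensor surface, GST-fused lck SH2 domain injected over it. Binding recorded as resonance units (1,000 RU = 1 ng/mm^2); inhibition by compounds seen as reduced RU.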"}, "[2]": {"tested_on": "IL-2 promoter", "test": "IL-2 promoter luciferase reporter assay in anti-CD3 activated Jurkat cells", "assay_type": "cell-based", "details": "Homo sapiens, TCR-induced (anti-CD3) IL-2 promoter luciferase, 2 h pre-incubation", "in_short": "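Jurkat cells transiently transfected with an IL-2 promoter–luciferase plasmid; 24 h later pre-incubated 2 h with compound (1 uM-50 uM), then activated on plates coated with 5 ug/ml anti-CD3. Luciferase activity read by luminometer; IC50 taken as 50% inhibition of TCR-induced promoter activation.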"}, "[3]": {"tested_on": "skin allograft rejection", "test": "Inhibition of skin allograft rejection (Balb/c tail skin grafted onto C57BL/6 mouse)", "assay_type": "in vivo", "details": "100 mg/kg/day into abdominal cavity from day of transplantation until complete rejection", "method": "For the experiment, allogeneic Balb/c(H-2d) mouse-tail skin was grafted onto C57BL/6(H-2b) mouse. Generally 7-8 mice were assigned to each group. All the phenyl derivatives were dissolved in 100% ethanol, mixed with olive oil, and adjusted to the final concentration of ethanol therein less than 5%. […] Meanwhile, for the group of untreated mice, an olive oil-ethanol mixture was administered as a control. The grafted skin was monitored daily after the removal of the bandage on days 7-9. Rejection was defined as more than 80% necrosis of the graft epithelium."}, "[4]": {"tested_on": "collagen-induced rheumatoid arthritis", "test": "Inhibition of collagen-induced rheumatoid arthritis in DBA1/LacJ mice", "assay_type": "in vivo, mouse", "parameters": "key: sum of 4 leg scores (0-4 each), max 16", "details": "50 mg/kg/day i.p. daily; day 15 after treatment (day 36 after primary immunization); sum of scores of four legs, maximum 16; mean ± standard deviation", "in_short": "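DBA1/LacJ mice primed with collagen II, boosted at 2 weeks with 50 μg C II/IFA. From week 3, compounds at 50 mg/kg/day were given i.p. daily in 5% ethanol–olive oil for 15–20 days (6–8 mice/group). Arthritic index (four paws, maximum 16) was scored daily and reported as group mean ± SD.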"}},
  "data": [
    {"smiles": "COC(=O)C(Cc1ccc(O)c(O)c1)NC(=O)c1ccc(O)c(O)c1", "note": "(stereo not shown) [Example 51, 2-(3,4-dihydroxy-benzoylamino)-3-(3,4-dihydroxy-phenyl)-propionic acid methyl ester]", "values": [
      {"measurement": "IC50", "setting": "[1]", "value": "< 10", "unit": "µM"},
      {"measurement": "IC50", "setting": "[2]", "value": 17.5, "unit": "µM"},
      {"measurement": "Survival time of skin graft tissue (days ± variance)", "setting": "[3]", "value": "12.5 ± 1.1", "unit": "days"},
      {"measurement": "Arthritis index", "setting": "[4]", "value": "5.5 ± 0.5"}
    ]},
    {"smiles": "COC(=O)[C@@H](Cc1ccc(O)c(O)c1)NC(=O)CCc1ccc(O)c(O)c1", "note": "[Example 52, 3-(3,4-dihydroxy-phenyl)-2-[3-(3,4-dihydroxy-phenyl)-propionylamino]-propionic acid methyl ester]", "values": [
      {"measurement": "IC50", "setting": "[1]", "value": "10 to 25", "unit": "µM"},
      {"measurement": "IC50", "setting": "[2]", "value": 21, "unit": "µM"},
      {"measurement": "Survival time of skin graft tissue (days ± variance)", "setting": "[3]", "value": "13.4 ± 1.2", "unit": "days"},
      {"measurement": "Arthritis index", "setting": "[4]", "value": "4.0 ± 0.7"}
    ]},
    {"smiles": "COC(=O)[C@@H](Cc1ccc(O)c(O)c1)OC(=O)/C=C/c1ccc(O)c(O)c1", "note": "[Example 54, (R)-3-(3,4-dihydroxy-phenyl)-acrylic acid 2-(3,4-dihydroxy-phenyl)-1-methoxycarbonyl ethyl ester]", "values": [
      {"measurement": "IC50", "setting": "[1]", "value": "10 to 25", "unit": "µM"},
      {"measurement": "IC50", "setting": "[2]", "value": 4.5, "unit": "µM"},
      {"measurement": "Survival time of skin graft tissue (days ± variance)", "setting": "[3]", "value": "13 ± 0.9", "unit": "days"},
      {"measurement": "Arthritis index", "setting": "[4]", "value": "3.5 ± 1.1"}
    ]},
    {"smiles": "CCCOC(=O)[C@@H](Cc1ccc(O)c(O)c1)OC(=O)/C=C/c1ccc(O)c(O)c1", "note": "[Example 55, (R)-3-(3,4-Dihydroxy-phenyl)-acrylic acid 2-(3,4-dihydroxy-phenyl)-1-propoxycarbonyl ethyl ester]", "values": [
      {"measurement": "IC50", "setting": "[1]", "value": "10 to 25", "unit": "µM"},
      {"measurement": "IC50", "setting": "[2]", "value": 5.7, "unit": "µM"},
      {"measurement": "Survival time of skin graft tissue (days ± variance)", "setting": "[3]", "value": "12.1 ± 0.8", "unit": "days"},
      {"measurement": "Arthritis index", "setting": "[4]", "value": "4.8 ± 0.8"}
    ]},
    {"smiles": "CC(C)(C)OC(=O)[C@@H](Cc1ccc(O)c(O)c1)OC(=O)/C=C/c1ccc(O)c(O)c1", "note": "[Example 56, (R)-3-(3,4-Dihydroxy-phenyl)-acrylic acid 2-(3,4-dihydroxy-phenyl)-1-tert-butoxycarbonyl ethyl ester]", "values": [
      {"measurement": "IC50", "setting": "[1]", "value": "25 to 50", "unit": "µM"},
      {"measurement": "IC50", "setting": "[2]", "value": 6.2, "unit": "µM"},
      {"measurement": "Survival time of skin graft tissue (days ± variance)", "setting": "[3]", "value": "12.9 ± 1.2", "unit": "days"},
      {"measurement": "Arthritis index", "setting": "[4]", "value": "5.2 ± 0.5"}
    ]},
    {"smiles": "NC(=O)[C@@H](Cc1ccc(O)c(O)c1)OC(=O)/C=C/c1ccc(O)c(O)c1", "note": "[Example 57, (R)-3-(3,4-Dihydroxy-phenyl)-acrylic acid 2-(3,4-dihydroxy-phenyl)-1-carbamoyl ethyl ester]", "values": [
      {"measurement": "IC50", "setting": "[1]", "value": "25 to 50", "unit": "µM"},
      {"measurement": "IC50", "setting": "[2]", "value": 5.2, "unit": "µM"},
      {"measurement": "Survival time of skin graft tissue (days ± variance)", "setting": "[3]", "value": "13.1 ± 0.7", "unit": "days"},
      {"measurement": "Arthritis index", "setting": "[4]", "value": "4.5 ± 1.2"}
    ]},
    {"smiles": "CC(C)NC(=O)[C@@H](Cc1ccc(O)c(O)c1)OC(=O)/C=C/c1ccc(O)c(O)c1", "note": "[Example 58, (R)-3-(3,4-Dihydroxy-phenyl)-acrylic acid 2-(3,4-dihydroxy-phenyl)-1-isopropylcarbamoyl ethyl ester]", "values": [
      {"measurement": "IC50", "setting": "[1]", "value": "25 to 50", "unit": "µM"},
      {"measurement": "IC50", "setting": "[2]", "value": 5.4, "unit": "µM"},
      {"measurement": "Survival time of skin graft tissue (days ± variance)", "setting": "[3]", "value": "12.5 ± 1.3", "unit": "days"},
      {"measurement": "Arthritis index", "setting": "[4]", "value": "4.8 ± 0.7"}
    ]}
  ]
}
